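Five concentrations, 48 hours, 96-well plates. Abbreviation: GI50, concentration required for 50% inhibition of growth. TGI: total growth inhibition.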
What was measured:
Test in all cases: growth of human tumour cells (NCI), 48 h
OVCAR-8 ovarian = tested on: OVCAR-8 ovarian
OVCAR-3 ovarian = tested on: OVCAR-3 ovarian
RPMI-8226 leukemia = tested on: RPMI-8226 leukemia
EKVX NSCLC = tested on: EKVX NSCLC
RXF 393 renal = tested on: RXF 393 renal
IGROV1 ovarian = tested on: IGROV1 ovarian
SW-620 colon = tested on: SW-620 colon
SF-268 CNS = tested on: SF-268 CNS
HOP-92 NSCLC = tested on: HOP-92 NSCLC
LOX IMVI melanoma = tested on: LOX IMVI melanoma

SMILES	TGI (OVCAR-8 ovarian) [µM]	TGI (OVCAR-3 ovarian) [µM]	TGI (RPMI-8226 leukemia) [µM]	TGI (EKVX NSCLC) [µM]	TGI (RXF 393 renal) [µM]	TGI (IGROV1 ovarian) [µM]	TGI (SW-620 colon) [µM]	TGI (SF-268 CNS) [µM]	GI50 (HOP-92 NSCLC) [µM]	TGI (HOP-92 NSCLC) [µM]	GI50 (OVCAR-8 ovarian) [µM]	GI50 (OVCAR-3 ovarian) [µM]	GI50 (RPMI-8226 leukemia) [µM]	GI50 (LOX IMVI melanoma) [µM]	TGI (LOX IMVI melanoma) [µM]	GI50 (EKVX NSCLC) [µM]	GI50 (RXF 393 renal) [µM]	GI50 (IGROV1 ovarian) [µM]	GI50 (SW-620 colon) [µM]	GI50 (SF-268 CNS) [µM]
CN(CCCN1C(=O)c2cccc3cc([N+](=O)[O-])cc(c23)C1=O)CCN(C)CCCN1C(=O)c2cccc3cc([N+](=O)[O-])cc(c23)C1=O	> 39.3	> 39.3	> 39.3	> 39.3	> 39.3	> 39.3	> 39.3	> 39.3												
c1cc(C2CCCCC2)ccc1-c1cnc2nonc2n1	> 19.8	1.97	2.79	3.65	1.56	3.15	2.45	9.29	0.422	2.12	1.38	0.557	0.4	0.527	1.74	1.52	0.514	1.13	0.502	2.13
C=C(C)C1CCC2=CC(CC3(C)OC3C3=CC(C(=O)OC)=C(C1)O3)OC2=O (centres undefined)	> 100	> 100		> 100	> 100	> 100	> 100	> 100		> 100					> 100					
CCOC(=O)C(=O)Nc1c(C)cccc1C(C)(C)C	> 100	> 100	> 100	> 100	> 100	> 100	> 100	> 100		> 100					> 100					
CC(C)(C)C(=O)c1c(C(F)(F)F)n([O-])c2cc(Cl)c(Cl)cc2[n+]1=O	1.51	0.363	0.281	3.4	0.909	0.213	0.644	0.902	1.47	2.78	0.502	0.125	0.131	1.04		1.91	0.438	0.077	0.244	0.457
CSc1ccc(NC(=O)Nc2cc(C)ccn2)cc1	> 100	> 100	> 100	> 100	> 100	> 100	> 100	> 100		> 100					> 100					
COc1cccc2c(SCC(=O)Nc3ccccc3-c3ccccc3NC(=O)CSc3c4ccccc4nc4c(OC)cccc34)c3ccccc3nc12	> 100	> 100		95	> 100	> 100		> 100												
O=C(COC(=O)c1cccc2c(=O)c3ccccc3[nH]c12)Nc1ccc(Cl)cc1	> 100	> 100		> 100	66	> 100	> 100	> 100		> 100					> 100					
O=C(N/N=C/c1cc(Cl)ccc1O)c1ccccc1Nc1ccnc(C(F)(F)F)c1	15.5	9.86	1.2	4.86	14.1	13.3	12.7	14.7	0.833	12.1	0.493	0.472	0.174	0.263	12	0.25	0.517	0.361	0.612	0.37
Cc1cc(-c2nc3n(c2/C=N/N=C(N)N)CCS3)c(C)s1	63.4	36.3	30.7	34.6			35	35.5			32.6	21.9	14	15	29.1	15.2			18.5	19.1
C=CC(=O)Nc1ccccc1CC(c1c[nH]c2ccccc12)c1c[nH]c2ccccc12	33.6	32.6	50.5	51		36.6	39.2	43.1							36.3					
O=C(O)/C(Cl)=C(Cl)/C=N/NC(=O)c1cc2ccccc2cc1O	> 100	> 100	> 100	> 100		> 100	> 100	> 100		> 100										
CCCCCN(CCCCC)C(=O)[C@H](CCC(=O)O)NC(=O)c1cc2ccccc2[nH]1	> 100	> 100	54.8	> 100	93.5	> 100	> 100	> 100		99.4					> 100					
CN(C)C(=S)/N=c1\ssc(=S)n1Cc1ccco1	> 100	9.58	> 100	> 100	8.22	> 100	> 100	> 100		> 100					> 100					
CC1(C2COC(=O)C2)SCCCS1 (centres undefined)	> 100	> 100		> 100	> 100	> 100	> 100	> 100		> 100					> 100					
C(=C\c1ccncc1)/c1ccncc1	> 100	> 100		> 100	> 100	> 100	> 100	> 100	74.9	> 100	> 100	> 100		> 100	> 100	> 100	> 100	> 100	> 100	> 100
Cc1ccc(C2[C@H]3C(=O)N(c4ccc(Cc5ccc(N6C(=O)[C@@H]7ON(c8ccccc8)C(c8ccc(C)cc8)[C@@H]7C6=O)cc5)cc4)C(=O)[C@H]3ON2c2ccccc2)cc1 (some centres undefined)		> 100	> 100		> 100	> 100	> 100	> 100		> 100					> 100					
CN(C)CCNC(=O)c1cccc2c1Oc1cccc([N+](=O)[O-])c1O2	50	49.7				34.1	46.2	42.7												
C[C@@]1(C(=O)O)CCC[C@]2(C)C1CC[C@]13C[C@@](O)(CO)[C@](O)(CC[C@]12O)C3 (some centres undefined)	> 100	> 100	> 100	> 100	> 100	> 100	> 100	> 100			> 100	> 100	> 100	> 100	> 100	> 100	> 100	> 100	> 100	> 100
